These results are taken from patent US10682323B2, “Therapeutic agent for glaucoma” (TOA EIYO LTD., priority 2016, dated 2020).

Each structure is given as a SMILES string.

In general, logD refers to lipophilicity at a set pH, counting ionised and neutral species. Low readings indicate lower lipophilicity, high ones higher lipophilicity. The term EC50 denotes the concentration giving half of the maximal effect.

Data set [1] is described as follows: Determination of Log D value (flask shaking method). The format is physicochemical. Conditions: pH 6.8; partition between n-octanol and second solution for the disintegration test (16th revised Japanese Pharmacopoeia), room temperature. As for the experimental part: More specifically, the Log D is more preferably 1.6 or more and 2.3 or less, still more preferably 1.8 or more and 2.2 or less, and particularly preferably 1.8 or more and 2.1 or less. Here, the Log D value in the present invention is a compound partition coefficient between n-octanol and a second solution of a disintegration test of the 16th revised Japanese Pharmacopoeia.
The Log D value was determined using a flask shaking method, where a test compound partition coefficient between n-octanol and the second solution for the disintegration test defined in the 16th revised Japanese Pharmacopoeia was calculated. Specifically, in a microtube containing 2 mg of the test compound, n-octanol (0.25 mL) and the second solution for the disintegration test (0.25 mL) were mixed. The tube was shaken in a multi shaker at room temperature for 60 minutes, and allowed to stand until the two phases were completely separated. In the microtube, 10 μL of an n-octanol phase was diluted with 190 μL of 85% methanol and mixed, thereby obtaining an organic phase test solution. 100 μL of the second solution phase for the disintegration test was diluted with 100 μL of 50% methanol, and mixed, thereby obtaining an aqueous phase test solution. The organic phase test solution and the aqueous phase test solution were filtered, respectively, and the concentration of the test compound in these test solutions were measured, using high performance liquid chromatography. Then, from the measured concentration and dilution rate, the Log D was calculated.
That is, the Log D of the present specification is represented by the following equation: Log D=Log10([concentration of test compound in organic phase test solution]/[concentration of test compound in aqueous phase test solution])+1 [Equation 1]
The second solution for the disintegration test herein refers to, as defined in the 16th revised Japanese Pharmacopoeia, a liquid obtained by adding to 250 mL of a 0.2 mol/L potassium dihydrogenphosphate reagent, 118 mL of a 0.2 mol/L sodium hydroxide reagent, and water for adjusting to 1000 mL volume.

In the next data set the target is T1, human sGC (Homo sapiens, UniProt Q02153).
T1 construct: expressed in transfected cells; host or cells: CHO-K1 cells (Chinese hamster ovary), stably co-expressing mouse CNGA2 as the calcium read-out channel
T1 sequence (Q02153 1-619): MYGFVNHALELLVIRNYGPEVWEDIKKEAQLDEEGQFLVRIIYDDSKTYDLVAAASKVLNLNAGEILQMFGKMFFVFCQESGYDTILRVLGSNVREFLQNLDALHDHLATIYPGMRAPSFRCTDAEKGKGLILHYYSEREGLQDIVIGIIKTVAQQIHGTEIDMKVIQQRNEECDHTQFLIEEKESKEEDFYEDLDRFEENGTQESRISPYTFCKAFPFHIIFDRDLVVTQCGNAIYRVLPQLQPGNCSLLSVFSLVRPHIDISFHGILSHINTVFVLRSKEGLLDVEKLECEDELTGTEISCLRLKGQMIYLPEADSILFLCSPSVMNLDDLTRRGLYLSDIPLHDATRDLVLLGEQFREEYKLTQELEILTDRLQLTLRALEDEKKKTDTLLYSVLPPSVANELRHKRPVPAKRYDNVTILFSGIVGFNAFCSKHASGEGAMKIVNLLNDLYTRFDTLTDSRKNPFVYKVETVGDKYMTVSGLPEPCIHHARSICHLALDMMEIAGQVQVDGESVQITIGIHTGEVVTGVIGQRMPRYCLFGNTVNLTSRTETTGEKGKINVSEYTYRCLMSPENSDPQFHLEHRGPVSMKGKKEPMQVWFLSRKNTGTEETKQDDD
T1 sequence (Q02108 1-690 partner): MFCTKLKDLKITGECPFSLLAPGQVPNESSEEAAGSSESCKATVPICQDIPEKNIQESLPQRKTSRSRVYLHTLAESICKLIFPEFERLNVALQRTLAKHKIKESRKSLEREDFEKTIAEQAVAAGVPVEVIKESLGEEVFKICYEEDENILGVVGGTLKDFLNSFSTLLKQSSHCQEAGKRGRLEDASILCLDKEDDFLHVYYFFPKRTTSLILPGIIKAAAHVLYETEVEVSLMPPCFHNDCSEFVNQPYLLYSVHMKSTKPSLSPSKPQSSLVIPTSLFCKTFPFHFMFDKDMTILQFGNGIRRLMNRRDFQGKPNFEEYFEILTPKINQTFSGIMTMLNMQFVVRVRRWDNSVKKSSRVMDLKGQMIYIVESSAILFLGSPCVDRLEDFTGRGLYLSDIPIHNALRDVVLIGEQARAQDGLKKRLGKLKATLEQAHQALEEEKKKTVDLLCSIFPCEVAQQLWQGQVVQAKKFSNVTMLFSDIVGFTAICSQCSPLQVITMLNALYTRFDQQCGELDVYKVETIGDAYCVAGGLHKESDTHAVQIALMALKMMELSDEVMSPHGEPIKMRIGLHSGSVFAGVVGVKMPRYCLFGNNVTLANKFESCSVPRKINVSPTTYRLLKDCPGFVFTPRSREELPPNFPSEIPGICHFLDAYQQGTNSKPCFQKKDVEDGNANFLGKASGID
The data set is described as follows: Measurement of sGC activating effect in CHO-K1 cells stably expressing human sGC and mouse CNGA2. Conditions: CHO-K1 cells expressing human sGC and mouse CNGA2, Fura2 calcium readout, 10 μmol/L ODQ in assay buffer. The format is cell-based. How it is done: Chinese Hamster ovary cells (CHO-K1 cells) modified for stably expressing human sGC α subunit and β subunit, and a mouse cyclic nucleotide gated channel (CNGA2) were used in the test.
The CHO-K1 cells stably expressing human sGC and mouse CNGA2 were cultured at 37° C. in a F-12 medium supplemented with 10% (v/v) fetal bovine serum (FBS), penicillin (100 U/mL), streptomycin (100 μg/mL), G418 (250 μg/mL), and Zeocin (250 μg/mL). The cells were suspended in a culture medium, seeded in a 96 well plate, and cultured at 37° C. for 24 hours. The cells were washed with an assay buffer 1 (140 mmol/L of sodium chloride, 5 mmol/L of potassium chloride, 0.5 mmol/L of magnesium chloride, 0.01 mmol/L of calcium chloride, 10 mmol/L of glucose, 0.4 mmol/L of magnesium sulfate, 10 mmol/L of 4-(2-hydroxyethyl)piperazine-1-yl ethanesulfonic acid, 125 μmol/L of sulfinpyrazone, pH 7.4), and then an indicator solution in which Fura2-AM as a fluorescent Ca2+ indicator is dissolved in assay buffer 1 at a concentration of 5 μmol/L was added thereto, and cultured at 37° C. for 60 minutes. The culture medium was removed, the cells were washed with assay buffer 1, the test compound solution was added thereto, and cultured at room temperature for 10 minutes. The plate was mounted on a fluorescence microplate reader (FlexStation II, available from Molecular Devices) with setting of excitation wavelengths of 340 and 380 nm and a detection wavelength of 510 nm, an intracellular calcium concentration was measured as a fluorescent intensity ratio obtained from each excitation wavelength.
In this test, the solution of the test compound was prepared by dissolving each test compound in DMSO at a concentration of 10 mmol/L, and then diluting the solution with assay buffer 2 (140 mmol/L of sodium chloride, 5 mmol/L of potassium chloride, 0.5 mmol/L of magnesium chloride, 1 mmol/L of calcium chloride, 10 mmol/L of glucose, 0.4 mmol/L of magnesium sulfate, 10 mmol/L of 4-(2-hydroxyethyl)piperazine-1-yl ethanesulfonic acid, 125 μmol/L of sulfinpyrazone, 100 μmol/L of isobutylmethylxanthine, 10 μmol/L of 1H-[1,2,4]-oxadiazole [4,3-a]quinoxaline-1-on (hereinafter, referred to as ODQ), pH 7.4), in order to adjust the concentration of 10 μmol/L for testing. As a control solution, a DMSO diluted solution was used, instead of the test compound solution.
The activity of the test compound was calculated as an increase rate (%) of the sGC activity in the test compound solution relative to the sGC activity in the control solution, by dividing a fluorescent intensity ratio in adding the test compound by a fluorescent intensity ratio of the control solution, and subtracting the sGC activity in the control solution (100%) therefrom. An EC50 value was calculated from the activity of the test compound at concentrations of 0.0001, 0.001, 0.003, 0.01, 0.03, 0.1, 1, and 10 μmol/L, using a 4 parameter losgistic model from Assay Explorer (available from Dssault Systèmes BIOVIA).

The conditions of data set [2]: as disclosed in Patent Literature 1 (WO 2015/095515 A); cited from earlier work.

For `O=C(O)CCCCN(Cc1ccc(C(=O)O)cc1)C[C@H](OCc1ccc(CCc2ccccc2)cc1F)c1ccccc1` [Compound No. 3, (−)-4-([N-(4-carboxybutyl)-N-[(2R)-2-[2 fluoro-4-(2-phenylethyl)benzyloxy]-2-phenylethyl]amino]methyl)benzoic acid], in data set [1], the logD stood at 1.99. Also, the EC50 on human sGC turned out to be 2.35 nM. In data set [1], `O=C(O)CCCCN(CCc1ccccc1OCc1ccc(OCc2ccccc2)cc1)C1CCCc2cc(C(=O)O)ccc21` (stereo not drawn) [Compound No. 26, 5-[N-[2-[2-(4-benzyloxybenzyloxy)phenyl]ethyl]amino-N-(4-carboxybutyl)]-5,6,7,8-tetrahydronaphthalene-2-carboxylic acid] came in with a logD of 2.24. Also, the EC50 at human sGC is 15.6 nM. Take `O=C(O)CCCCN(CCc1ccccc1OCc1ccc(CCc2ccccc2)cc1)Cc1ccc(C(=O)O)cc1` [Cinaciguat]: the “intraocular pressure lowering action” value in data set [2] was “low intraocular pressure lowering action”. In data set [1], `O=C(O)CCCCN(CCc1ccccc1OCc1ccc2c(c1)CCCC2)C1CCCc2cc(C(=O)O)ccc21` (stereo not drawn) [Compound No. 20, 5-[N-(4-carboxybutyl)-N-[2-[2-(1,2,3,4-tetrahydronaphthalene-6-ylmethoxy)phenyl]ethyl]amino]-5,6,7,8-tetrahydronaphthalene-2-carboxylic acid] returned a logD of 1.87. For the same compound, the concentration for a half-maximal effect (EC50) at human sGC was determined as 3.96 nM. In the case of `O=C(O)CCCCN(CCc1ccccc1OCc1ccc2c(c1)CCCC2)C1CCOc2cc(C(=O)O)ccc21` (stereo not drawn) [Compound No. 18, 4-[N-(4-carboxybutyl)-N-[2-[2-(1,2,3,4-tetrahydronaphthalene-6-ylmethoxy)phenyl]ethyl]amino]-chromane-7-carboxylic acid], the pH-dependent lipophilicity (logD) in data set [1] was 2.14. In addition, the EC50 on human sGC was 2.9 nM. For the compound `O=C(O)CCCCN(CCc1ccccc1OC[C@@H]1CCc2ccccc2C1)C1CCCc2cc(C(=O)O)ccc21` (stereo partly drawn) [Compound No. 16, 5-[N-(4-carboxybutyl)-N-[2-[2-((2R)-1,2,3,4-tetrahydronaphthalene-2-ylmethoxy)phenyl]ethyl]amino]-5,6,7,8-tetrahydronaphthalene-2-carboxylic acid], in data set [1], the logD came to 1.99. Besides, the EC50 at human sGC turned out to be 7.5 nM. The corresponding values for `O=C(O)CCCCN(Cc1ccc(C(=O)O)cc1)CC(OCc1ccc(CCc2ccccc2)cc1)c1cccs1` (stereo not drawn) [Compound No. 7, ([N-(4-carboxybutyl)-N-[2-[4-(2-phenylethyl)benzyloxy]-2-(2-thienyl)ethyl]amino]methyl)benzoic acid] are 2.11 and 3.92 nM. For `O=C(O)CCCCN(Cc1ccc(C(=O)O)cc1)C[C@H](OCc1ccc(Oc2ccccc2)cc1)c1cccc(Cl)c1` [Compound No. 23, (−)-4-([N-(4-carboxybutyl)-N-[(2R)-2-(3-chlorophenyl)-2-[4-(phenyloxy)benzyloxy]ethyl]amino]methyl)benzoic acid], the logD in data set [1] is 2.35. Moreover, the EC50 on human sGC was 2.47 nM. Compound `O=C(O)CCCCN(CCc1ccccc1OCc1ccc(CCc2ccccc2)cc1)[C@H]1CCc2cc(C(=O)O)ccc21` [Compound No. 12] came in with a logD in data set [1] of 1.95. The EC50 at human sGC is 11.9 nM. The compound `O=C(O)CCCCN(Cc1ccc(C(=O)O)cc1)CC(OCc1ccc(CCc2ccccc2)cc1)c1ccc(F)cc1` (stereo not drawn) [Compound No. 13, 4-([N-(4-carboxybutyl)-N-[2-(4-fluorophenyl)-2-[4-(2-phenylethyl)benzyloxy]ethyl]amino]methyl)benzoic acid] showed a logD in data set [1] of 2.19. Moreover, the EC50 at human sGC worked out at 26.5 nM. In the case of `O=C(O)CCCCN(Cc1ccc(C(=O)O)cc1)C[C@H](OCc1ccc(Oc2ccc(Cl)cc2)cc1)c1ccccc1` [Compound No. 5, (−)-4-([N-(4-carboxybutyl)-N-[(2R)-2-[4-(4-chlorophenyloxy)benzyloxy]-2-phenylethyl]amino]methyl)benzoic acid], in data set [1], the logD is 2.17. In addition, at human sGC, the EC50 came to 6.49 nM.
